Here are results for one compound from patent publication US11099176B2 (priority 2015, dated 2021).

Structures are written as SMILES. Read-outs that look alike come from different tables or passages of the source.

Format in all cases: binding
Assay [1] concerns Anaeromyxobacter dehalogenans adLacBP9 variant F191C, SEQ ID NO: 44, Acrylodan conjugate. Description: Fluorescence titration of conjugate. Also on record: key: nb: no binding. How it is done:
(§1) 12-, 24-, or 48-point logarithmic titration series were prepared on a Tecan Freedom liquid-handling robot, using an in-house program, ‘TitrationPlate’, that compiles an abstract description of a multi-component titration series into machine instructions for operating the robot. Temperature-dependent fluorescence emission intensities of 20 μL aliquots, each containing 10 μM protein, were measured in 384-well microtiter plates in a LightCycler 480 II (Roche) using excitation and emission wavelengths available for this instrument that most closely matched the optical characteristics of the fluorescent conjugate. Temperatures were advanced in 1K steps. At each temperature, data was collected at 1-second intervals for 60 seconds at which point the signal had relaxed to a steady value associated with the new temperature. […] The in-house program ‘TitrationMeltPlate’ was used to convert these observations into time-independent datasets that record fluorescence as a function of temperature for each well and associate wells with their concentration of titrant and additive. Management tools were developed to maintain a database of titrations and their analyses.
(§2) Ligand- and wavelength-dependent emission intensities were recorded on a Nanodrop3300 (Thermo Scientific) at room temperature. Using the LED closest to the optimal excitation wavelength of the fluorophore (UV, 365 nm; blue, 470 nm; ‘white’, 460-550 nm).
(§3) Monochromatic emission intensities Iλ (these intensities correspond to a bandpass intensity, recorded either with a physical filter in the case of the Roche LightCycler, or by integrating in the interval λ−δ, λ+δ in the case of an emission spectrum), were fit to Iλ=^apoβλ(1−ytrue)+^satβλytrue 1 where ^apoβλ and ^satβλ are the fluorescence baselines associated with the ligand-free and ligand-bound states of the protein, respectively, and ytrue the fractional saturation of the protein (Layton and Hellinga, 2010, Biochemistry, 49, 10831-41). Baseline functions can be constant, linear, or a second-order polynomial.

Assay [2] deals with Anaeromyxobacter dehalogenans adLacBP9 variant F191C, SEQ ID NO: 44, Badan conjugate. The assay can be described thus: Fluorescence titration of conjugate. Also on record: key: nb: no binding. The protocol: as §1, §2, §3
The target of assay [3] is T1, Flexistipes sinusarabici fsLacBP13 variant W188C, SEQ ID NO: 47, Acrylodan conjugate (Flexistipes sinusarabici, UniProt F8E724, W211C).
T1 construct: Acrylodan on Cys188
Description: Fluorescence titration of conjugate.

The target in assay [4] is Marinobacter sp. msLacBP6 variant 187C, F68M, SEQ ID NO: 50, Acrylodan conjugate. Description: Fluorescence titration of conjugate (affinity tuning). The settings on record: λ1 459, λ2 516 nm.
For assay [5], the target named is Marinobacter sp. msLacBP6 variant 187C, F68M, SEQ ID NO: 50, Badan conjugate. Described as above. As to conditions: λ1 464, λ2 527 nm.
The target of assay [6] is Marinobacter sp. msLacBP6 variant 187C, L70I, SEQ ID NO: 52, Badan conjugate. The assay is described as above. As to conditions: λ1 460, λ2 537 nm.
In assay [7] the target is Marinobacter sp. msLacBP6 variant 187C, L70M, SEQ ID NO: 53, Badan conjugate. Described as above. The settings on record: λ1 459, λ2 539 nm.
The subject of assay [8] is Marinobacter sp. msLacBP6 187C mutants (variants of Table 7). Description: Affinity summary of msLacBP6 187C affinity-tuning mutants. The source says: In the PCS we mutated F68 (F98 in ttLacBP1) and D220 (D250 in ttLacBP1). […] It could therefore be considered part of a secondary complementary surface layer (SCS). In the interface we mutated L70 (L100 in ttLacBP1), which is located at the periphery of the lactate-binding site, and forms a contact from the N- to the C-terminal domain across the inter-domain interface.
Both PCS and SCS mutations perturbed the spectral shapes of the lactate-mediated responses. […] These affinity-tuned sensors therefore provide a suitable set for clinical chemistry applications.

T1 sequence (F8E724 entry or part of it W211C): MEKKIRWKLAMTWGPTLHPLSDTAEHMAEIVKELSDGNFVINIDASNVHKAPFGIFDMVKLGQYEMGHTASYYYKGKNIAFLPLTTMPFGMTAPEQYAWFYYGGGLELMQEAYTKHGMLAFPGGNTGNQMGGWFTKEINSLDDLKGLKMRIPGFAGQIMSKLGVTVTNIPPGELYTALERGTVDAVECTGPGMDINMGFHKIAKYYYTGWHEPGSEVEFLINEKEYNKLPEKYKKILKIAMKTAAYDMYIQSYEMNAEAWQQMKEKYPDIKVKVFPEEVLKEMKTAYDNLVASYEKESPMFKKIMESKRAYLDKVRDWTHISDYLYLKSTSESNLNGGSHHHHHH

Regarding `C[C@H](O)C(=O)O` [lactate], the “appKd (lactate)” value in assay [1] and in assay [2] was “nb” throughout. Further, the “trueKd (lactate)” value in assay [1] and in assay [2] was “nb” throughout. Also, the Kd was above 100000 µM in assay [3]; above 100000 µM in assay [3] (read-out: trueKd (lactate), λ1 482, λ2 450 nm); 700 µM in assay [4] (read-out: appKd (lactate)); 500 µM in assay [4] (read-out: trueKd (lactate)); 500 µM in assay [5] (read-out: appKd (lactate)); 600 µM in assay [5] (read-out: trueKd (lactate)). Further, the Kd in assay [6] (read-out: appKd (lactate)) was 300 µM; in assay [6] (read-out: trueKd (lactate)), 200 µM; in assay [7] (read-out: appKd (lactate)) it was 1100 µM; in assay [7] (read-out: trueKd (lactate)), 700 µM; in assay [8] (read-out: lactate affinities (range over variants), msLacBP6 Acrylodan and Badan conjugate variants), 200 to 24000 µM. Further, in assay [8] (F68 mutations in 187C background), the “effect of F68 mutations on lactate affinity” value is on record as “did not greatly affect lactate affinity”.
